In the CheMixHub drug solubility set:

Experiment: xn = mol fraction of the nth substance listed, in the solute-free solvent

Nc1ncc(Br)nc1Br + CC(O)CO + O
solubility (g/100 g solution)
Settings	278.15 K	283.15 K	288.15 K	293.15 K	298.15 K	303.15 K	308.15 K	313.15 K	318.15 K	323.15 K
x2 = 0.02564	0.0095	0.0115	0.0136	0.016	0.0185	0.0208	0.0236	0.0266	0.0296	0.0328
x2 = 0.0559	0.0197	0.0236	0.0277	0.0324	0.0372	0.0418	0.0471	0.0527	0.0583	0.0644
x2 = 0.09214	0.0333	0.0398	0.0466	0.0542	0.0622	0.0696	0.0781	0.0872	0.0963	0.106
x2 = 0.1364	0.0486	0.0576	0.0678	0.0785	0.0902	0.101	0.113	0.126	0.139	0.154
x2 = 0.1915	0.0614	0.0724	0.0858	0.0998	0.115	0.13	0.147	0.163	0.18	0.2
x2 = 0.2621	0.0735	0.0873	0.103	0.12	0.138	0.158	0.176	0.197	0.218	0.244
x2 = 0.3559	0.0818	0.0972	0.116	0.134	0.156	0.178	0.201	0.225	0.251	0.281
x2 = 0.4865	0.0875	0.105	0.125	0.146	0.17	0.196	0.219	0.246	0.276	0.307
x2 = 0.6806	0.0874	0.104	0.124	0.147	0.171	0.196	0.224	0.252	0.281	0.316

c1ccc2c(c1)CCc1ccccc1N2 + CC(C)O + O
solubility (g/100 g solution)
Settings	283.15 K	288.15 K	293.15 K	298.15 K	303.15 K	308.15 K	313.15 K	318.15 K	323.15 K	328.15 K
x2 = 0.03176	0.0176	0.0251	0.0346	0.0488	0.0604	0.0841	0.111	0.148	0.194	0.252
x2 = 0.0697	0.0729	0.101	0.136	0.186	0.24	0.32	0.411	0.527	0.674	0.851
x2 = 0.1134	0.12	0.164	0.22	0.296	0.38	0.499	0.636	0.808	1.02	1.28
x2 = 0.1667	0.119	0.156	0.212	0.286	0.384	0.504	0.625	0.779	0.979	1.22
x2 = 0.2299	0.126	0.162	0.214	0.281	0.369	0.484	0.601	0.762	0.947	1.18
x2 = 0.3101	0.114	0.153	0.205	0.27	0.348	0.452	0.575	0.726	0.915	1.14
x2 = 0.4103	0.132	0.176	0.237	0.308	0.396	0.511	0.648	0.814	1.02	1.27
x2 = 0.5463	0.168	0.221	0.295	0.38	0.487	0.622	0.771	0.958	1.18	1.47
x2 = 0.7321	0.172	0.219	0.296	0.374	0.48	0.613	0.778	0.975	1.22	1.51
